Reference: ChEMBL document CHEMBL1201862, “PubChem BioAssay data set” (2004)
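Protocol summary: plate cells (96-well), add compound at 5 concentrations, incubate 48 h, interpolate endpoints linearly. GI50 = concentration required for 50% inhibition of growth.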 Calls of active or inactive are those of the source. No stated cut-off is given here; in the data, active = GI50 up to about 1.1 µM and inactive = higher.

Legend:
Test in all cases: NCI anticancer screen, dose series, 48 h
Malme-3M = system: Malme-3M
U-251 = system: U-251
A498 = system: A498
HL-60 = system: HL-60
SN12C = system: SN12C
IGROV-1 = system: IGROV-1
786-0 = system: 786-0
HCT-15 = system: HCT-15
TK-10 = system: TK-10
UO-31 = system: UO-31
EKVX = system: EKVX
SK-OV-3 = system: SK-OV-3
HCC 2998 = system: HCC 2998
SNB-19 = system: SNB-19
NCI-H226 = system: NCI-H226

Structure (SMILES) | GI50 (Malme-3M) | GI50 (U-251) | GI50 (A498) | GI50 (HL-60) | GI50 (SN12C) | GI50 (IGROV-1) | GI50 (786-0) | GI50 (HCT-15) | GI50 (TK-10) | GI50 (UO-31) | GI50 (EKVX) | GI50 (SK-OV-3) | GI50 (HCC 2998) | GI50 (SNB-19) | GI50 (NCI-H226)
CCOC(=O)N1C/C(=C\c2ccc(N(C)C)cc2)C(=O)/C(=C/c2ccc(N(C)C)cc2)C1 | > 100 µM (inactive) | > 100 µM (inactive) | > 100 µM (inactive) | > 100 µM (inactive) | > 100 µM (inactive) | > 100 µM (inactive) | > 100 µM (inactive) | > 100 µM | > 100 µM (inactive) | > 100 µM (inactive) | > 100 µM (inactive) | > 100 µM (inactive) | > 100 µM (inactive) | > 100 µM (inactive) | –
CCC1(O)C(=O)OCc2c1cc1n(c2=O)Cc2cc3cc(OC)c(OC)cc3nc2-1 (stereo unspecified) | > 100 µM (inactive) | 6.52 µM (inactive) | 28.1 µM (inactive) | 12 µM (inactive) | 5.5 µM (inactive) | 13.9 µM (inactive) | 6.28 µM (inactive) | – | > 100 µM (inactive) | 32 µM (inactive) | > 100 µM (inactive) | 19.7 µM (inactive) | 36.7 µM (inactive) | 16 µM (inactive) | 14.8 µM (inactive)
CN(C)c1ccc(/C=C(\NC(=O)c2ccccc2)c2nc3ccc4c(c3[nH]2)C(=O)c2ccccc2C4=O)cc1 | > 100 µM (inactive) | 31.5 µM (inactive) | 6.61 µM (inactive) | – | 34 µM (inactive) | 11.4 µM (inactive) | 25.4 µM (inactive) | 34.1 µM | 17.1 µM (inactive) | 1.33 µM (inactive) | 48.1 µM (inactive) | 39 µM (inactive) | > 100 µM (inactive) | > 100 µM (inactive) | –
Cc1ccc(S(=O)(=O)N/N=C\c2c3ccccc3[n+]([O-])c3ccccc23)cc1 | 12.2 µM (inactive) | 3.93 µM (inactive) | 3.8 µM (inactive) | 0.889 µM (active) | 4.59 µM (inactive) | 9.25 µM (inactive) | 2.01 µM (inactive) | 0.989 µM | 4.9 µM (inactive) | 14.1 µM (inactive) | 20 µM (inactive) | 14.7 µM (inactive) | 8.57 µM (inactive) | 11.9 µM (inactive) | 4.54 µM (inactive)
CC(=O)N(O)Cc1ccccc1 | > 100 µM (inactive) | > 100 µM (inactive) | – | > 100 µM (inactive) | > 100 µM (inactive) | > 100 µM (inactive) | > 100 µM (inactive) | > 100 µM | > 100 µM (inactive) | > 100 µM (inactive) | – | > 100 µM (inactive) | > 100 µM (inactive) | > 100 µM (inactive) | > 100 µM (inactive)
CCOC(=O)C(C)(C)Oc1ccc2c(=O)cc(-c3ccc(Cl)cc3)oc2c1 | > 100 µM (inactive) | > 100 µM (inactive) | > 100 µM (inactive) | > 100 µM (inactive) | > 100 µM (inactive) | > 100 µM (inactive) | > 100 µM (inactive) | > 100 µM | > 100 µM (inactive) | > 100 µM (inactive) | > 100 µM (inactive) | – | > 100 µM (inactive) | > 100 µM (inactive) | > 100 µM (inactive)
COc1ccc(NC(=O)C(C)Oc2ccc(OCC3CCCCC3)cc2)cc1 (stereo unspecified) | 34.2 µM (inactive) | > 100 µM (inactive) | > 100 µM (inactive) | 42.2 µM (inactive) | > 100 µM (inactive) | > 100 µM (inactive) | > 100 µM (inactive) | 63 µM | > 100 µM (inactive) | 51.4 µM (inactive) | – | > 100 µM (inactive) | 23.6 µM (inactive) | > 100 µM (inactive) | > 100 µM (inactive)
NC(=S)N/N=C(/CC(=O)c1ccccc1)C(=O)Nc1ccc(Cl)c(Cl)c1 | > 100 µM (inactive) | 59 µM (inactive) | > 100 µM (inactive) | 23.3 µM (inactive) | > 100 µM (inactive) | 65.2 µM (inactive) | 59.7 µM (inactive) | 43.3 µM | > 100 µM (inactive) | 51.2 µM (inactive) | 33 µM (inactive) | > 100 µM (inactive) | 93.5 µM (inactive) | 91.2 µM (inactive) | > 100 µM (inactive)
COc1ccc(OC)c2[nH]c(Sc3c([N+](=O)[O-])ncn3C)nc12 | 13.5 µM (inactive) | 28.9 µM (inactive) | 31 µM (inactive) | – | 19.9 µM (inactive) | 24.2 µM (inactive) | 29.3 µM (inactive) | 16 µM | 23.6 µM (inactive) | 28.6 µM (inactive) | 23.1 µM (inactive) | 35.2 µM (inactive) | 20.3 µM (inactive) | > 10 µM (inactive) | 14.2 µM (inactive)
COc1ccc(OC(C(=O)O)c2ccccc2)c2c1CCCC2=O (stereo unspecified) | > 100 µM (inactive) | > 100 µM (inactive) | > 100 µM (inactive) | > 100 µM (inactive) | > 100 µM (inactive) | > 100 µM (inactive) | > 100 µM (inactive) | > 100 µM | > 100 µM (inactive) | > 100 µM (inactive) | > 100 µM (inactive) | > 100 µM (inactive) | > 100 µM (inactive) | > 100 µM (inactive) | –
CCCCC(C(=O)C(=O)NC1C2CC3CC(C2)CC1C3)C(=O)C(C)C (stereo unspecified) | > 100 µM (inactive) | > 100 µM (inactive) | > 100 µM (inactive) | > 100 µM (inactive) | > 100 µM (inactive) | > 100 µM (inactive) | > 100 µM (inactive) | > 100 µM | > 100 µM (inactive) | > 100 µM (inactive) | > 100 µM (inactive) | > 100 µM (inactive) | > 100 µM (inactive) | > 100 µM (inactive) | > 100 µM (inactive)
COC(=O)C(Cc1nc2ccccc2nc1O)C(=O)C(=O)Nc1ccc([N+](=O)[O-])cc1[N+](=O)[O-] (stereo unspecified) | 19.3 µM (inactive) | 17.1 µM (inactive) | 23 µM (inactive) | 21.8 µM (inactive) | 19.8 µM (inactive) | 25.6 µM (inactive) | 16.5 µM (inactive) | 17.3 µM | 26.4 µM (inactive) | 20.6 µM (inactive) | 20 µM (inactive) | 24.9 µM (inactive) | 18.1 µM (inactive) | 29.7 µM (inactive) | 14.5 µM (inactive)
O=S(=O)(c1ccccc1)C(CN1CCCCC1)S(=O)(=O)c1ccccc1 | > 100 µM (inactive) | > 100 µM (inactive) | – | > 100 µM (inactive) | > 100 µM (inactive) | > 100 µM (inactive) | > 100 µM (inactive) | > 100 µM | > 100 µM (inactive) | > 100 µM (inactive) | – | > 100 µM (inactive) | > 100 µM (inactive) | > 100 µM (inactive) | > 100 µM (inactive)
c1ccc(CN(Cc2ccccn2)Cn2cccn2)nc1 | – | 39.2 µM (inactive) | 38.2 µM (inactive) | 22.9 µM (inactive) | 47.9 µM (inactive) | – | 91.2 µM (inactive) | 28.7 µM | > 100 µM (inactive) | 79.6 µM (inactive) | 34.9 µM (inactive) | 43 µM (inactive) | – | > 100 µM (inactive) | –
CC1=C(c2cc(C(=O)Nc3cccc(C(F)(F)F)c3)ncn2)Sc2ccccc2N1 | > 100 µM (inactive) | > 100 µM (inactive) | > 100 µM (inactive) | > 100 µM (inactive) | > 100 µM (inactive) | > 100 µM (inactive) | > 100 µM (inactive) | > 100 µM | > 100 µM (inactive) | > 100 µM (inactive) | > 100 µM (inactive) | > 100 µM (inactive) | – | > 100 µM (inactive) | > 100 µM (inactive)
c1ccc(C2=NOC3COc4ccccc4OCC23)cc1 (stereo unspecified) | > 100 µM (inactive) | > 100 µM (inactive) | > 100 µM (inactive) | 89.5 µM (inactive) | > 100 µM (inactive) | – | > 100 µM (inactive) | > 100 µM | > 100 µM (inactive) | 77.1 µM (inactive) | > 100 µM (inactive) | > 100 µM (inactive) | > 100 µM (inactive) | > 100 µM (inactive) | –
Cn1c(-c2ccccc2)c/c(=N\NS(C)(=O)=O)c2cc(S(=O)(=O)O)ccc21 | > 100 µM (inactive) | > 100 µM (inactive) | – | > 100 µM (inactive) | > 100 µM (inactive) | > 100 µM (inactive) | > 100 µM (inactive) | > 100 µM | > 100 µM (inactive) | > 100 µM (inactive) | > 100 µM (inactive) | > 100 µM (inactive) | > 100 µM (inactive) | > 100 µM (inactive) | > 100 µM (inactive)
CC1(C)CC(C)(C)CC(O)(C2(O)CC(C)(C)CC(C)(C)C2)C1 | > 100 µM (inactive) | > 100 µM (inactive) | – | > 100 µM (inactive) | > 100 µM (inactive) | > 100 µM (inactive) | > 100 µM (inactive) | > 100 µM | > 100 µM (inactive) | > 100 µM (inactive) | > 100 µM (inactive) | > 100 µM (inactive) | > 100 µM (inactive) | > 100 µM (inactive) | > 100 µM (inactive)
Cc1nc2c(n1Cc1ccc(F)cc1)C(=O)c1ccccc1C2=O | 8.89 µM (inactive) | 6.56 µM (inactive) | – | 5.48 µM (inactive) | 54 µM (inactive) | 25.8 µM (inactive) | 13.1 µM (inactive) | 4.29 µM | > 100 µM (inactive) | > 100 µM (inactive) | 71 µM (inactive) | > 100 µM (inactive) | 87.3 µM (inactive) | > 100 µM (inactive) | 32.5 µM (inactive)
CCCCCCCOc1ccc(/C=C\c2cc[n+](CCCCCCCC[n+]3ccc(/C=C\c4ccc(OCCCCCCC)cc4)cc3)cc2)cc1 | 18.7 µM (inactive) | 7.46 µM (inactive) | 26.6 µM (inactive) | 4.3 µM (inactive) | 20 µM (inactive) | 11.3 µM (inactive) | 14.7 µM (inactive) | 19.9 µM | 23.9 µM (inactive) | 19.5 µM (inactive) | > 100 µM (inactive) | 28.1 µM (inactive) | – | 7.87 µM (inactive) | –
